Molecules are shown by their SMILES.

The values below come from patent publication US8183262B2, “Pyridine derivatives as mGluR2 antagonists” (Hoffmann-La Roche Inc., priority 2007, dated 2012).

One may read the melting point as the temperature, or range, at which the solid turns liquid.

Consider `Cc1cc(-c2ccc(Cl)c(Cl)c2)cc(-n2cnc(-c3ccc(N)nc3)c2)n1` [Example 246, 5-{1-[4-(3,4-Dichloro-phenyl)-6-methyl-pyridin-2-yl]-1H-imidazol-4-yl}-pyridin-2-ylamine], for which the melting point came out at 245 °C.
On to `Cc1cc(-c2ccc(C(F)(F)F)c(C)c2)nc(-c2cccc(-c3ccc(N)nc3)c2)n1` [Example 132, 5-{3-[4-Methyl-6-(3-methyl-4-trifluoromethyl-phenyl)-pyrimidin-2-yl]-phenyl}-pyridin-2-ylamine], for which the melting point was found to be 153 °C.
With `CCOc1cc(-c2cc(C(F)(F)F)nc(-c3ccnc(-c4ccc(N)nc4)c3)n2)ccc1C(F)(F)F` [Example 92, 4-[4-(3-Ethoxy-4-trifluoromethyl-phenyl)-6-trifluoromethyl-pyrimidin-2-yl]-[2,3′]bipyridinyl-6′-ylamine] the figure was 222 °C.
The compound `Cc1cc(-c2ccc(Cl)cc2)nc(-n2cnc(-c3cccnc3)c2)n1` [Example 44, 4-(4-Chloro-phenyl)-6-methyl-2-(4-pyridin-3-yl-imidazol-1-yl)-pyrimidine] had a melting point of 179 to 181 °C.
Turning to `NS(=O)(=O)c1cccc(-c2cccc(-c3nc(-c4ccc(Cl)cc4)cc(C(F)(F)F)n3)c2)c1` [Example 178, 3′-[4-(4-Chloro-phenyl)-6-trifluoromethyl-pyrimidin-2-yl]-biphenyl-3-sulfonic acid amide], the melting point worked out at 165 °C.
For `CCCN(C)S(=O)(=O)c1cccc(-c2cc(-c3nc(-c4ccc(C(F)(F)F)cc4)cc(C(F)(F)F)n3)ccn2)c1` [Example 404, N-Methyl-N-propyl-3-{4-[4-trifluoromethyl-6-(4-trifluoromethyl-phenyl)-pyrimidin-2-yl]-pyridin-2-yl}-benzenesulfonamide] the value was 144 °C; for `FC(F)(F)c1ccc(-c2cc(C(F)(F)F)nc(-n3cnc(-c4cccnc4)n3)n2)cc1` [Example 149, 2-(3-Pyridin-3-yl-[1,2,4]triazol-1-yl)-4-trifluoromethyl-6-(4-trifluoromethyl-phenyl)-pyrimidine], 190 °C.
In turn, `Cc1cc(-c2ccc(Cl)c(Cl)c2)nc(-n2cnc(-c3ccc(S(N)(=O)=O)s3)c2)n1` [Example 216, 5-{1-[4-(3,4-Dichloro-phenyl)-6-methyl-pyrimidin-2-yl]-1H-imidazol-4-yl}-thiophene-2-sulfonic acid amide] registered a melting point of 253.5 °C.
For `Cc1cc(-c2ccc(C(F)(F)F)cc2)cc(-c2cccc(-c3ccnc(N)c3)n2)n1` [Example 358, 6-Methyl-4-(4-trifluoromethyl-phenyl)-[2,2′;6′,4″]terpyridin-2″-ylamine] the value was 160 °C.
Consider `Cc1cc(-c2ccc(C(F)(F)F)cc2)cc(-c2nc(-c3cnc(N)nc3)cs2)n1` [Example 231, 5-{2-[6-Methyl-4-(4-trifluoromethyl-phenyl)-pyridin-2-yl]-thiazol-4-yl}-pyrimidin-2-ylamine], for which the melting point is over 250 °C.
`NS(=O)(=O)c1ccc(-c2cn(-c3nc(-c4ccc(C(F)(F)F)cc4)cc(C(F)(F)F)n3)cn2)cc1` [Example 159, 4-{1-[4-Trifluoromethyl-6-(4-trifluoromethyl-phenyl)-pyrimidin-2-yl]-1H-imidazol-4-yl}-benzenesulfonamide] came in with a melting point of 292 °C.
Consider `Nc1ccc(-c2cc(-c3nc(-c4ccc(C(F)(F)F)c(OCC(F)(F)F)c4)cc(C(F)(F)F)n3)ccn2)cn1` [Example 135, 4-{4-[3-(2,2,2-Trifluoro-ethoxy)-4-trifluoromethyl-phenyl]-6-trifluoromethyl-pyrimidin-2-yl}-[2,3′]bipyridinyl-6′-ylamine], for which the melting point is 223 °C.
For `NS(=O)(=O)c1ccc(-c2cn(-c3cc(-c4ccc(C(F)(F)F)cc4)cc(C(F)(F)F)n3)cn2)s1` [Example 314, 5-{1-[6-Trifluoromethyl-4-(4-trifluoromethyl-phenyl)-pyridin-2-yl]-1H-imidazol-4-yl}-thiophene-2-sulfonic acid amide] the value was 237 °C (dec.); for `FC(F)(F)c1cc(-c2ccc(Cl)cc2)nc(-c2nc(-c3cccnc3)no2)n1` [Example 29, 4-(4-Chloro-phenyl)-2-(3-pyridin-3-yl-[1,2,4]oxadiazol-5-yl)-6-trifluoromethyl-pyrimidine], 168.5 °C; for `CC(C)(C)NS(=O)(=O)c1cccc(-c2cc(-c3nc(-c4ccc(C(F)(F)F)cc4)cc(C(F)(F)F)n3)ccn2)c1` [Example 156, N-tert-Butyl-3-{4-[4-trifluoromethyl-6-(4-trifluoromethyl-phenyl)-pyrimidin-2-yl]-pyridin-2-yl}-benzenesulfonamide], 211 °C.
`CCOc1cc(-c2cc(C(F)(F)F)nc(-c3nc(-c4ccc(S(N)(=O)=O)cc4)no3)n2)ccc1C(F)(F)F` [Example 89, 4-{5-[4-(3-Ethoxy-4-trifluoromethyl-phenyl)-6-trifluoromethyl-pyrimidin-2-yl]-[1,2,4]oxadiazol-3-yl}-benzenesulfonamide] came in with a melting point of 250.5 °C.
For the compound `CC(C)c1cc(-c2ccc(C(F)(F)F)cc2)nc(-n2cnc(-c3ccc(N)nc3)c2)n1` [Example 152, 5-{1-[4-Isopropyl-6-(4-trifluoromethyl-phenyl)-pyrimidin-2-yl]-1H-imidazol-4-yl}-pyridin-2-ylamine], the melting point was 274.5 °C.
Compound `FC(F)(F)c1cc(-c2ccc(Cl)cc2)nc(-c2ccnc(-c3ccncc3)c2)n1` [Example 86, 4-[4-(4-Chloro-phenyl)-6-trifluoromethyl-pyrimidin-2-yl]-[2,4′]bipyridinyl] came in with a melting point of 193 °C.
With `Cc1cc(-c2cc(C(F)(F)F)nc(-n3cnc(-c4ccc(N)nc4)c3)n2)ccc1Cl` [Example 104, 5-{1-[4-(4-Chloro-3-methyl-phenyl)-6-trifluoromethyl-pyrimidin-2-yl]-1H-imidazol-4-yl}-pyridin-2-ylamine] the figure was 276 °C; with `Clc1ccc(-c2cc(C3CC3)nc(-n3cnc(-c4cccnc4)c3)n2)cc1` [Example 50, 4-(4-Chloro-phenyl)-6-cyclopropyl-2-(4-pyridin-3-yl-imidazol-1-yl)-pyrimidine], 180 to 182 °C.
`NS(=O)(=O)c1ccc(-c2cccc(-c3nc(-c4ccc(C(F)(F)F)cc4)cc(C(F)(F)F)n3)c2)s1` [Example 161, 5-{3-[4-Trifluoromethyl-6-(4-trifluoromethyl-phenyl)-pyrimidin-2-yl]-phenyl}-thiophene-2-sulfonic acid amide] came in with a melting point of 204 °C.
In turn, `CCc1cc(-c2ccc(C(F)(F)F)cc2)cc(-c2cccc(-c3ccc(N)nc3)c2)n1` [Example 264, 5-{3-[6-Ethyl-4-(4-trifluoromethyl-phenyl)-pyridin-2-yl]-phenyl}-pyridin-2-ylamine] had a melting point of 74 °C.
For `NS(=O)(=O)c1ccc(-c2cccc(-c3nc(-c4ccc(C(F)(F)F)c(F)c4)cc(C(F)(F)F)n3)c2)s1` [Example 461, 5-{3-[4-(3-Fluoro-4-trifluoromethyl-phenyl)-6-trifluoromethyl-pyrimidin-2-yl]-phenyl}-thiophene-2-sulfonic acid amide], the melting point was 213.5 °C.
For `CCOc1cc(-c2cc(C(F)(F)F)nc(-c3nc(-c4cccc(S(N)(=O)=O)c4)no3)n2)ccc1C(F)(F)F` [Example 91, 3-{5-[4-(3-Ethoxy-4-trifluoromethyl-phenyl)-6-trifluoromethyl-pyrimidin-2-yl]-[1,2,4]oxadiazol-3-yl}-benzenesulfonamide] the value was 227 °C.
For `Cc1cc(-c2ccc(C(F)(F)F)cc2)cc(-c2ccnc(-c3cnc(N)nc3)c2)n1` [Example 76, 5-[6-Methyl-4-(4-trifluoromethyl-phenyl)-[2,4′]bipyridinyl-2′-yl]-pyrimidin-2-ylamine] the value was over 245 °C; for `Cc1cc(-c2ccc(C(F)(F)F)cc2)cc(-c2cccc(-c3cccc(S(=O)(=O)NCCOCCO)c3)n2)n1` [Example 372, N-[2-(2-Hydroxy-ethoxy)-ethyl]-3-[6′-methyl-4′-(4-trifluoromethyl-phenyl)-[2,2′]bipyridinyl-6-yl]-benzenesulfonamide], 123 °C; for `Cc1cc(-c2cc(C(F)(F)F)nc(-c3nc(-c4cccc(S(N)(=O)=O)c4)no3)n2)ccc1Cl` [Example 106, 3-{5-[4-(4-Chloro-3-methyl-phenyl)-6-trifluoromethyl-pyrimidin-2-yl]-[1,2,4]oxadiazol-3-yl}-benzenesulfonamide], 246 °C.
With `NS(=O)(=O)c1cnc(-c2cn(-c3nc(-c4ccc(Cl)cc4)cc(C(F)(F)F)n3)cn2)s1` [Example 182, 2-{1-[4-(4-Chloro-phenyl)-6-trifluoromethyl-pyrimidin-2-yl]-1H-imidazol-4-yl}-thiazole-5-sulfonic acid amide] the figure was 263 °C.
In turn, `Nc1ccc(-c2cn(-c3nc(-c4cccc(Cl)c4)cc(C(F)(F)F)n3)cn2)cn1` [Example 186, 5-{1-[4-(3-Chloro-phenyl)-6-trifluoromethyl-pyrimidin-2-yl]-1H-imidazol-4-yl}-pyridin-2-ylamine] gave a melting point of 248 °C.
On to `FC(F)c1cc(-c2ccc(C(F)(F)F)cc2)nc(-c2ccncc2)n1` [Example 38, 4-Difluoromethyl-2-pyridin-4-yl-6-(4-trifluoromethyl-phenyl)-pyrimidine], for which the melting point turned out to be 132.5 °C.
As for `Cc1cc(-c2ccc(C(F)(F)F)cc2)cc(-c2cccc(-c3cccc(S(=O)(=O)NC(C)(C)CO)c3)n2)n1` [Example 363, N-(2-Hydroxy-1,1-dimethyl-ethyl)-3-[6′-methyl-4′-(4-trifluoromethyl-phenyl)-[2,2′]bipyridinyl-6-yl]-benzenesulfonamide], the melting point was 171 °C.
`NS(=O)(=O)c1ccc(-c2noc(-c3nc(-c4ccc(Cl)c(Cl)c4)cc(C(F)(F)F)n3)n2)cc1` [Example 98, 4-{5-[4-(3,4-Dichloro-phenyl)-6-trifluoromethyl-pyrimidin-2-yl]-[1,2,4]oxadiazol-3-yl}-benzenesulfonamide] yielded a melting point of 302.5 °C.
As to `Nc1ccc(-c2noc(-c3nc(-c4ccc(C(F)(F)F)cc4)cc(C(F)F)n3)n2)cn1` [Example 36, 5-{5-[4-Difluoromethyl-6-(4-trifluoromethyl-phenyl)-pyrimidin-2-yl]-[1,2,4]oxadiazol-3-yl}-pyridin-2-ylamine], the melting point amounted to 219 °C.
